From PubChem BioAssay (NCI)
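In this assay, cells in 96-well plates receive the compound at five concentrations for 48 hours. Endpoints are linearly interpolated between the surrounding concentrations. At the GI50, growth is halved. Definition used: TGI = concentration required for complete inhibition of growth.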

Tests used:
Test in all cases: NCI anticancer screen, dose series, 48 h
TK-10 renal = tested on: TK-10 renal
NCI-H522 lung = tested on: NCI-H522 lung
SF-295 CNS = tested on: SF-295 CNS
UO-31 renal = tested on: UO-31 renal
RPMI-8226 leukemia = tested on: RPMI-8226 leukemia
HT29 colon = tested on: HT29 colon
NCI-H23 lung = tested on: NCI-H23 lung
OVCAR-8 ovarian = tested on: OVCAR-8 ovarian
IGROV1 ovarian = tested on: IGROV1 ovarian
SNB-75 CNS = tested on: SNB-75 CNS
UACC-257 melanoma = tested on: UACC-257 melanoma
HOP-92 NSCLC = tested on: HOP-92 NSCLC
NCI-H226 lung = tested on: NCI-H226 lung
SK-MEL-5 melanoma = tested on: SK-MEL-5 melanoma
ACHN renal = tested on: ACHN renal
KM12 colon = tested on: KM12 colon
EKVX NSCLC = tested on: EKVX NSCLC
SK-OV-3 ovarian = tested on: SK-OV-3 ovarian
UACC-62 melanoma = tested on: UACC-62 melanoma
SF-539 CNS = tested on: SF-539 CNS
MOLT-4 leukemia = tested on: MOLT-4 leukemia
MDA-MB-435 = tested on: MDA-MB-435
U251 CNS = tested on: U251 CNS
OVCAR-4 ovarian = tested on: OVCAR-4 ovarian
OVCAR-5 ovarian = tested on: OVCAR-5 ovarian
M14 melanoma = tested on: M14 melanoma
MALME-3M melanoma = tested on: MALME-3M melanoma
SR leukemia = tested on: SR leukemia
A549 NSCLC = tested on: A549 NSCLC
MCF7 breast = tested on: MCF7 breast
786-0 renal = tested on: 786-0 renal
NCI-H460 lung = tested on: NCI-H460 lung
SW-620 colon = tested on: SW-620 colon
HOP-62 NSCLC = tested on: HOP-62 NSCLC
K-562 leukemia = tested on: K-562 leukemia
HCT-116 colon = tested on: HCT-116 colon
SK-MEL-28 melanoma = tested on: SK-MEL-28 melanoma
SF-268 CNS = tested on: SF-268 CNS
SN12C renal = tested on: SN12C renal
DU-145 prostate = tested on: DU-145 prostate
HCC-2998 colon = tested on: HCC-2998 colon
HCT-15 colon = tested on: HCT-15 colon
MDA-MB-231 breast = tested on: MDA-MB-231 breast
SK-MEL-2 melanoma = tested on: SK-MEL-2 melanoma
PC-3 prostate = tested on: PC-3 prostate
COLO 205 colon = tested on: COLO 205 colon
SNB-19 CNS = tested on: SNB-19 CNS
CAKI-1 renal = tested on: CAKI-1 renal
A498 renal = tested on: A498 renal
LOX IMVI melanoma = tested on: LOX IMVI melanoma
CCRF-CEM leukemia = tested on: CCRF-CEM leukemia
T-47D breast = tested on: T-47D breast
BT-549 breast = tested on: BT-549 breast
NCI/ADR-RES ovarian = tested on: NCI/ADR-RES ovarian
HS 578T breast = tested on: HS 578T breast
OVCAR-3 ovarian = tested on: OVCAR-3 ovarian
HL-60(TB) leukemia = tested on: HL-60(TB) leukemia
RXF 393 renal = tested on: RXF 393 renal

Work on `Cc1cc2c(cc1Cl)SC1=NN(C)C(C)N1S2(=O)=O` (stereo not given) yielded a GI50 (TK-10 renal) of over 100 µM, a TGI (TK-10 renal) of over 100 µM and a GI50 (NCI-H522 lung) of 88.8 µM. For the same compound, the TGI (NCI-H522 lung) was over 100 µM, the GI50 (SF-295 CNS) was over 100 µM and the TGI (SF-295 CNS) was over 100 µM. For the same compound, the GI50 (UO-31 renal) was over 100 µM, the TGI (UO-31 renal) was over 100 µM and the GI50 (RPMI-8226 leukemia) was over 100 µM. The TGI (RPMI-8226 leukemia) was over 100 µM, the GI50 (HT29 colon) was over 100 µM and the TGI (HT29 colon) was over 100 µM. The GI50 (NCI-H23 lung) was over 100 µM, the TGI (NCI-H23 lung) was over 100 µM and the GI50 (OVCAR-8 ovarian) was over 100 µM. The TGI (OVCAR-8 ovarian) was over 100 µM, the GI50 (IGROV1 ovarian) was over 100 µM and the TGI (IGROV1 ovarian) was over 100 µM. It also gave a GI50 (SNB-75 CNS) of 35.3 µM, a TGI (SNB-75 CNS) of over 100 µM and a GI50 (UACC-257 melanoma) of over 100 µM. For the same compound, the TGI (UACC-257 melanoma) was over 100 µM, the GI50 (HOP-92 NSCLC) was 19.3 µM and the TGI (HOP-92 NSCLC) was 80.9 µM. For the same compound, the GI50 (NCI-H226 lung) was over 100 µM, the TGI (NCI-H226 lung) was over 100 µM and the GI50 (SK-MEL-5 melanoma) was over 100 µM. It also gave a TGI (SK-MEL-5 melanoma) of over 100 µM, a GI50 (ACHN renal) of over 100 µM and a TGI (ACHN renal) of over 100 µM. The GI50 (KM12 colon) was over 100 µM, the TGI (KM12 colon) was over 100 µM and the GI50 (EKVX NSCLC) was over 100 µM. For the same compound, the TGI (EKVX NSCLC) was over 100 µM, the GI50 (SK-OV-3 ovarian) was over 100 µM and the TGI (SK-OV-3 ovarian) was over 100 µM. For the same compound, the GI50 (UACC-62 melanoma) was over 100 µM, the TGI (UACC-62 melanoma) was over 100 µM and the GI50 (SF-539 CNS) was over 100 µM. The TGI (SF-539 CNS) was over 100 µM, the GI50 (MOLT-4 leukemia) was 71 µM and the TGI (MOLT-4 leukemia) was over 100 µM. The GI50 (MDA-MB-435) was over 100 µM, the TGI (MDA-MB-435) was over 100 µM and the GI50 (U251 CNS) was over 100 µM. For the same compound, the TGI (U251 CNS) was over 100 µM, the GI50 (OVCAR-4 ovarian) was 74.8 µM and the TGI (OVCAR-4 ovarian) was over 100 µM. For the same compound, the GI50 (OVCAR-5 ovarian) was over 100 µM, the TGI (OVCAR-5 ovarian) was over 100 µM and the GI50 (M14 melanoma) was over 100 µM. It also gave a TGI (M14 melanoma) of over 100 µM, a GI50 (MALME-3M melanoma) of over 100 µM and a TGI (MALME-3M melanoma) of over 100 µM. The GI50 (SR leukemia) was 39.2 µM, the TGI (SR leukemia) was over 100 µM and the GI50 (A549 NSCLC) was over 100 µM. For the same compound, the TGI (A549 NSCLC) was over 100 µM, the GI50 (MCF7 breast) was 36 µM and the TGI (MCF7 breast) was over 100 µM. The GI50 (786-0 renal) was over 100 µM, the TGI (786-0 renal) was over 100 µM and the GI50 (NCI-H460 lung) was over 100 µM. For the same compound, the TGI (NCI-H460 lung) was over 100 µM, the GI50 (SW-620 colon) was over 100 µM and the TGI (SW-620 colon) was over 100 µM. For the same compound, the GI50 (HOP-62 NSCLC) was over 100 µM, the TGI (HOP-62 NSCLC) was over 100 µM and the GI50 (K-562 leukemia) was over 100 µM. It also gave a TGI (K-562 leukemia) of over 100 µM, a GI50 (HCT-116 colon) of over 100 µM and a TGI (HCT-116 colon) of over 100 µM. It also gave a GI50 (SK-MEL-28 melanoma) of over 100 µM, a TGI (SK-MEL-28 melanoma) of over 100 µM and a GI50 (SF-268 CNS) of 98.1 µM. It also gave a TGI (SF-268 CNS) of over 100 µM, a GI50 (SN12C renal) of over 100 µM and a TGI (SN12C renal) of over 100 µM. For the same compound, the GI50 (DU-145 prostate) was over 100 µM, the TGI (DU-145 prostate) was over 100 µM and the GI50 (HCC-2998 colon) was over 100 µM. For the same compound, the TGI (HCC-2998 colon) was over 100 µM, the GI50 (HCT-15 colon) was over 100 µM and the TGI (HCT-15 colon) was over 100 µM. The GI50 (MDA-MB-231 breast) was over 100 µM, the TGI (MDA-MB-231 breast) was over 100 µM and the GI50 (SK-MEL-2 melanoma) was over 100 µM. It also gave a TGI (SK-MEL-2 melanoma) of over 100 µM, a GI50 (PC-3 prostate) of over 100 µM and a TGI (PC-3 prostate) of over 100 µM. It also gave a GI50 (COLO 205 colon) of over 100 µM, a TGI (COLO 205 colon) of over 100 µM and a GI50 (SNB-19 CNS) of over 100 µM. The TGI (SNB-19 CNS) was over 100 µM, the GI50 (CAKI-1 renal) was over 100 µM and the TGI (CAKI-1 renal) was over 100 µM. For the same compound, the GI50 (A498 renal) was over 100 µM, the TGI (A498 renal) was over 100 µM and the GI50 (LOX IMVI melanoma) was over 100 µM. It also gave a TGI (LOX IMVI melanoma) of over 100 µM, a GI50 (CCRF-CEM leukemia) of over 100 µM and a TGI (CCRF-CEM leukemia) of over 100 µM. The GI50 (T-47D breast) was 95.8 µM, the TGI (T-47D breast) was over 100 µM and the GI50 (BT-549 breast) was 96.5 µM. It also gave a TGI (BT-549 breast) of over 100 µM, a GI50 (NCI/ADR-RES ovarian) of over 100 µM and a TGI (NCI/ADR-RES ovarian) of over 100 µM. It also gave a GI50 (HS 578T breast) of over 100 µM, a TGI (HS 578T breast) of over 100 µM and a GI50 (OVCAR-3 ovarian) of over 100 µM. The TGI (OVCAR-3 ovarian) was over 100 µM.
`C/C(O)=C(/C=N/C(=S)Nc1ccc(S(N)(=O)=O)cc1)C(=O)Nc1ccccc1C` showed a TGI (TK-10 renal) of over 100 µM, a TGI (NCI-H522 lung) of over 100 µM and a TGI (SF-295 CNS) of over 100 µM. The TGI (UO-31 renal) was over 100 µM, the TGI (RPMI-8226 leukemia) was 97.3 µM and the TGI (HT29 colon) was over 100 µM. It also gave a TGI (NCI-H23 lung) of over 100 µM, a TGI (OVCAR-8 ovarian) of over 100 µM and a TGI (IGROV1 ovarian) of over 100 µM. It also gave a TGI (UACC-257 melanoma) of over 100 µM, a TGI (HOP-92 NSCLC) of over 100 µM and a TGI (NCI-H226 lung) of over 100 µM. It also gave a TGI (SK-MEL-5 melanoma) of over 100 µM, a TGI (ACHN renal) of over 100 µM and a TGI (KM12 colon) of over 100 µM. The TGI (EKVX NSCLC) was over 100 µM, the TGI (SK-OV-3 ovarian) was over 100 µM and the TGI (UACC-62 melanoma) was over 100 µM. The TGI (SF-539 CNS) was over 100 µM, the TGI (MOLT-4 leukemia) was over 100 µM and the TGI (MDA-MB-435) was over 100 µM. For the same compound, the TGI (U251 CNS) was over 100 µM, the TGI (OVCAR-4 ovarian) was over 100 µM and the TGI (OVCAR-5 ovarian) was over 100 µM. For the same compound, the TGI (M14 melanoma) was over 100 µM, the TGI (A549 NSCLC) was over 100 µM and the TGI (MCF7 breast) was over 100 µM. For the same compound, the TGI (786-0 renal) was over 100 µM, the TGI (NCI-H460 lung) was over 100 µM and the TGI (SW-620 colon) was over 100 µM. It also gave a TGI (HOP-62 NSCLC) of over 100 µM, a TGI (K-562 leukemia) of over 100 µM and a TGI (HCT-116 colon) of over 100 µM. It also gave a TGI (SF-268 CNS) of over 100 µM, a TGI (SN12C renal) of over 100 µM and a TGI (DU-145 prostate) of over 100 µM. For the same compound, the TGI (HCC-2998 colon) was over 100 µM, the TGI (HL-60(TB) leukemia) was 42.8 µM and the TGI (HCT-15 colon) was over 100 µM. The TGI (MDA-MB-231 breast) was over 100 µM, the TGI (SK-MEL-2 melanoma) was over 100 µM and the TGI (PC-3 prostate) was over 100 µM. The TGI (COLO 205 colon) was over 100 µM, the TGI (SNB-19 CNS) was over 100 µM and the TGI (CAKI-1 renal) was over 100 µM. The TGI (LOX IMVI melanoma) was 48.8 µM, the TGI (CCRF-CEM leukemia) was 65.9 µM and the TGI (T-47D breast) was over 100 µM. The TGI (BT-549 breast) was over 100 µM, the TGI (NCI/ADR-RES ovarian) was over 100 µM and the TGI (HS 578T breast) was over 100 µM. It also gave a TGI (OVCAR-3 ovarian) of over 100 µM and a TGI (RXF 393 renal) of over 100 µM.
